For the assay, the system named is bilateral neovascular AMD with occult choroidal neovascularization. The assay can be described thus: Treatment of a patient with bilateral neovascular AMD with occult choroidal neovascularization. Type of assay: in vivo, human. The settings on record: after intravitreal injection to both eyes.

As to pegaptanib, the “vision, left eye” value (20/80 before) is 20/100. Also, for the setting “CF at six feet before”, the “vision, right eye” value is “CF at six feet”.

The values are drawn from US20110212047A1, “Polymer Therapy for the Treatment of Chronic Microvascular Diseases” (Synth Rx, Inc., priority 2007, published 2011).
